In patent US20170174633A1 (RESEARCH TRIANGLE INSTITUTE, priority 2014, published 2017):
Several values for one entry are separate records, joined by “and”; a condition that tells them apart may be missing. Equal entries are not always repeated. Where two headings read alike, the source gives them in different places.

Key:
rNTS2 receptor [1] = target: T1, rNTS2 receptor (Rattus norvegicus, UniProt Q63384); assay: Calcium mobilization assay for NTS2 receptor (FLIPR Tetra); format: cell-based; settings: FLIPR assay, ± SEM; for NTS2 Emax % of 5b: calcium release relative to 5b; for EC50: compound induced calcium release, CHO-kl-rNTS2 cells
T1 construct: expressed in transfected cells
T1 sequence (Q63384 1-416): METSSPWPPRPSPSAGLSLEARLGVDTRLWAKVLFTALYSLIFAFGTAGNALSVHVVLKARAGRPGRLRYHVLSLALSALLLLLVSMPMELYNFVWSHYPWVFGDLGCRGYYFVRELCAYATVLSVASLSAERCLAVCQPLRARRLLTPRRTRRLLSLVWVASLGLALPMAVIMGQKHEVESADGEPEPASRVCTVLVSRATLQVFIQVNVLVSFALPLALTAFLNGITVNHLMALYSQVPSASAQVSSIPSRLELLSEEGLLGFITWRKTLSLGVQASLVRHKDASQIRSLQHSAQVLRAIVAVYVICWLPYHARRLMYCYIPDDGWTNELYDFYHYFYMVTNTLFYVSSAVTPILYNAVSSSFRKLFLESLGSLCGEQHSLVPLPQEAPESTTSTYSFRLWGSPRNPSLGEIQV
Procedure: (§1) The binding affinities of the test compounds for the rNTS1 and rNTS2 receptors listed in Tables 1 through 4 were determined using previously reported competitive binding assays^49. […] The cells used in the binding assay were CHO-kl cells (American Type Culture Collection) engineered to over-express either the rNTS1 or rNTS2 receptor. Measures of functional agonism and antagonism were obtained by measuring changes in intensity of a calcium-sensitive fluorescent dye as an indirect measure of changes in internal calcium concentrations. These measurements were performed using a FLIPR Tetra (NTS2) or a FlexStation II plate reader for NTS1 (Molecular Devices) and were analyzed using GraphPad Prism software.
CHO-kl-rNTS2 cells were maintained in DMEM/F12 supplemented with 10% FBS, pen/strep, 100 μg/ml normocin, and 400 μg/ml geneticin. For calcium mobilization assays, cells were plated at 25,000 cells/well in black, clear-bottom 96-well plates 24 hrs before the assay and incubated at 37° C., 5% CO2. 100 μl reconstituted Calcium 5 dye (Molecular Devices, diluted 1:20 in assay buffer (1×HBSS, 20 mM HEPES, 2.5 mM Probenicid, pH 7.4)) was added per well and plates were incubated for 45 min at 37° C., 5% CO2. […] Full-log serial dilutions of the test compounds were made at 10× the desired final concentration in 1% DMSO assay buffer and warmed to 37° C. After the pre-treatment incubation, fluorescence intensity was measured on a FLIPR Tetra fluorometric imaging plate reader (Molecular Devices). Relative Fluorescence Units (RFUs) were measured every second for 100 seconds (14 readings before compound addition to establish baseline fluorescence, 85 after) Exposure time 0.53 s, Gain=2000, Excitation intensity=30%, Gate open=10%. For antagonist assays, 1/10 volume of 10×concentration of the test compound dilutions in 10% DMSO in assay buffer was added to cells in lieu of the 10% DMSO only in assay buffer for the pre-treatment.
(§2) To determine EC50, IC50, and Ke values, data were fit to a three-parameter logistic equation using GraphPad Prism software. Ki values for radioligand binding assays were determined from ICso values using the equation of Cheng and Prusoff. All data are from at least three independent experiments run in duplicate wells.

rNTS2 receptor [2] = target: T1, rNTS2 receptor; assay: 125I-NT competitive binding assay, whole CHO-kl cells over-expressing rNTS2; settings: for Ki: competition with 125I-NT, ± SEM, read-out: 125I-NT Binding NTS2 Ki; for NTS2/NTS1 selectivity ratio: ratio of 125I-NT binding Ki at NTS1 and NTS2; for selectivity for NTS2 (versus NTS1): relative binding affinities at NTS1 and NTS2
Procedure: as §1
Briefly, cells were plated at 100,000 cells/well in 24-well plates in complete DMEM/F12 medium supplemented with 10% fetal bovine serum, 100 units of penicillin/mL, 100 μg of streptomycin/mL, 0.1 mg/mL of normocin, and 250 μg/mL geneticin. Cells were incubated at 37° C. with 5% CO2 and 95% humidity for 48 hrs. […] Cells were washed twice in Earle's buffer, extracted in 1 ml 0.1N NaOH and counted in a Packard Cobra II Gamma Counter for 1 minute.
as §2

rNTS1 receptor [3] = target: T2, rNTS1 receptor (Rattus norvegicus, UniProt P20789); assay: 125I-NT competitive binding assay, whole CHO-kl cells over-expressing rNTS1; settings: competition with 125I-NT, read-out: NTS1 Ki
T2 construct: expressed in transfected cells
Procedure: The binding affinities of the test compounds for the rNTS1 and rNTS2 receptors listed in Tables 1 through 4 were determined using previously reported competitive binding assays^49. The NTS1 and 2 receptors were labeled using ^125I-NT. The cells used in the binding assay were CHO-kl cells (American Type Culture Collection) engineered to over-express either the rNTS1 or rNTS2 receptor. Measures of functional agonism and antagonism were obtained by measuring changes in intensity of a calcium-sensitive fluorescent dye as an indirect measure of changes in internal calcium concentrations. These measurements were performed using a FLIPR Tetra (NTS2) or a FlexStation II plate reader for NTS1 (Molecular Devices) and were analyzed using GraphPad Prism software. Antagonism was measured as inhibition of NT-induced calcium release (NTS1) or inhibition of SR142948 (5b)-induced calcium release (NTS2).
Briefly, cells were plated at 100,000 cells/well in 24-well plates in complete DMEM/F12 medium supplemented with 10% fetal bovine serum, 100 units of penicillin/mL, 100 μg of streptomycin/mL, 0.1 mg/mL of normocin, and 250 μg/mL geneticin. Cells were incubated at 37° C. with 5% CO2 and 95% humidity for 48 hrs. Cells were then equilibrated for 10 minutes in Earle's buffer (130 mM NaCl, 5 mM KCl, 1.8 mM CaCl2, 0.8 mM MgCl2, and 20 mM HEPES, pH 7.4) supplemented with 0.1% BSA and 0.1% glucose, and then incubated with or without 10 nM test compound in 0.1 nM ^125I-NT at 37° C. for 30 min. Cells were washed twice in Earle's buffer, extracted in 1 ml 0.1N NaOH and counted in a Packard Cobra II Gamma Counter for 1 minute.
as §2

rNTS1 receptor [4] = target: T2, rNTS1 receptor; assay: Calcium mobilization assay for NTS1 receptor (FLIPR assay, FlexStation II); format: cell-based; settings: for Kb: antagonism of NT induced calcium release, ± SEM, read-out: NTS1 Ke
Procedure: as §1
CHO-kl-rNTS1 cells were maintained in DMEM/F12 medium supplemented with 10% fetal bovine serum (Gibco), 100 U/ml penicillin/100 ug/ml streptomycin, 100 ug/ml normocin (Invivogen), and 250 ug/ml geneticin. For calcium mobilization assays, cells were plated at 30,000 cells/well in black, clear-bottom 96-well plates 24 hrs before the assay and incubated at 37° C., 5% CO2. Prior to the assay, Calcium 5 dye (Molecular Devices) was reconstituted according to manufacturer instructions. The reconstituted dye was diluted 1:40 in assay buffer (lx HBSS, 20 mM HEPES, and 2.5 mM Probenicid (Sigma), pH 7.4). Growth media was removed and 200 ul of this diluted dye was added to each well. Plates were incubated for 45 min at 37° C., 5% CO2 after dye addition. […] Full-log serial dilutions of the test compounds were made at 10× the desired final concentration in 1% DMSO assay buffer and warmed to 37° C. After the pre-treatment incubation, fluorescence intensity was measured on a FlexStation II fluorometric imaging plate reader (Molecular Devices). Relative fluorescence units (RFU) were measured before (20 readings) and after (40 readings) the agonist compound addition for a total 60 second read time (Excitation=485 nm, Emission=525 nm, cutoff=515 nm). For antagonist assays, cells were treated with Calcium dye for 45 min at 37° C., 5% CO2 as with the agonist assays. Then the test antagonist compounds were added in 1% DMSO in assay buffer and the plate was incubated for 15 min at 37° C., 5% CO2.
as §2

NTS2 versus NTS1 = settings: literature report; cited from earlier work
[5] = literature report; cited from earlier work

T2 sequence (P20789 whole entry): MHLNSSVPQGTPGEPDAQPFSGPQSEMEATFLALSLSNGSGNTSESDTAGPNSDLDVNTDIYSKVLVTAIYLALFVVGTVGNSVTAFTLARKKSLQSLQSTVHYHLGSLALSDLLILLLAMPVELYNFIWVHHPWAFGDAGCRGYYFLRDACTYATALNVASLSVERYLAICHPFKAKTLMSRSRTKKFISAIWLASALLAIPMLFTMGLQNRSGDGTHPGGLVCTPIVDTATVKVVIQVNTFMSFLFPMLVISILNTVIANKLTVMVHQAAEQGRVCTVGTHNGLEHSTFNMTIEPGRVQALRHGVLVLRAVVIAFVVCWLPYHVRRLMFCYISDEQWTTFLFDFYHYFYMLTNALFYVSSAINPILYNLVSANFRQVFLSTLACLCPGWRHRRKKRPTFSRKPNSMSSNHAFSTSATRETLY

Compound	NTS2 Emax % of 5b (rNTS2 receptor [1])	EC50 (rNTS2 receptor [1]) [nM]	Ki (rNTS2 receptor [2]) [nM]	Kb (rNTS1 receptor [4]) [nM]	also measured
COc1ccccc1-c1cc(C(=O)NC2(C(=O)O)CCCCC2)nn1-c1ccc(F)cc1 [7b, 1-({[1-(4-Fluorophenyl)-5-(2-methoxyphenyl)-1H-pyrazol-3-yl]carbonyl}amino)cyclo-hexane carboxylic Acid]	7 ± 2 % of 5b	12 ± 6	153 ± 10		NTS2/NTS1 selectivity ratio (rNTS2 receptor [2]): 161; selectivity for NTS2 (versus NTS1) (rNTS2 receptor [2]): 161 fold; Ki (rNTS1 receptor [3]; bound given in uM): > 25 µM
COc1cccc(OC)c1-c1cc(C(=O)NC2(C(=O)O)CCCCC2)nn1-c1cccc2ccccc12 [26b, 1-({[5-(2,6-Dimethoxyphenyl)-1-naphthalen-1-yl-1H-pyrazol-3-yl]carbonyl}amino)cyclohexane-carboxylic Acid]	35 % of 5b and 35 ± 1 % of 5b	18 ± 1.6	116 ± 39	230 ± 79	
COc1ccccc1-c1cc(C(=O)NC2(C(=O)O)CCCCC2)nn1-c1cccc2ccccc12 [27b, 1-({[5-(2-Methoxyphenyl)-1-naphthalen-1-yl-1H-pyrazol-3-yl]carbonyl}amino)cyclohexane-carboxylic Acid]	18 % of 5b and 18 ± 2 % of 5b	108 ± 8	694 ± 178	7380 ± 1130	
COc1cccc(OC)c1-c1cc(C(=O)N[C@H](C(=O)O)C2CCCCC2)nn1-c1ccc(F)cc1 [28b, (2S)-Cyclohexyl({[5-(2,6-dimethoxyphenyl)-1-(4-fluorophenyl)-1H-pyrazol-3-yl]carbonyl}amino)ethanoic Acid]	22 ± 5 % of 5b	271 ± 24	622 ± 245	3340 ± 549	
COc1cccc(OC)c1-c1cc(C(=O)NC2(C(=O)O)CCCCC2)nn1-c1ccc(F)cc1 [29b, 1-({[5-(2,6-Dimethoxyphenyl)-1-(4-fluorophenyl)-1H-pyrazol-3-yl]carbonyl}amino)cyclohexane-carboxylic Acid]	12 ± 0.5 % of 5b	19 ± 3	140 ± 29		NTS2/NTS1 selectivity ratio (rNTS2 receptor [2]): 23; selectivity for NTS2 (versus NTS1) (rNTS2 receptor [2]): 23 fold; Ki (rNTS1 receptor [3]; ± SEM): 3.21 ± 0.879 µM
C[C@@H]1CN([C@H]2CC[C@](C#N)(c3ccc(F)cc3)CC2)CC[C@]1(C(=O)O)c1ccccc1 [compound 6, Levocabastine, reference compound]	16 % of 5b and 16 ± 3 % of 5b	28	33		activity in NTS1 FLIPR assay (rNTS1 receptor [4]; agonist and antagonist mode versus NT): neither agonist nor antagonist activity
COc1cccc(OC)c1-c1cc(C(=O)NC2(C(=O)O)C3CC4CC(C3)CC2C4)nn1-c1ccc(F)cc1 (stereo not drawn) [compound 30, 2-({[5-(2,6-Dimethoxyphenyl)-1-(4-fluorophenyl)-1H-pyrazol-3-yl]carbonyl}amino) tricyclo[3.3.1.13,7]decane-2-carboxylic Acid]	34 % of 5b and 34 ± 5 % of 5b	68	110 ± 29	191 ± 47	
COc1ccccc1-c1cc(C(=O)NC2(C(=O)O)C3CC4CC(C3)CC2C4)nn1-c1ccc(F)cc1 (stereo not drawn) [compound 31, 2-({[1-(4-fluorophenyl)-5-(2-methoxyphenyl)-1H-pyrazol-3-yl]carbonyl}amino)tricyclo[3.3.1.13,7]decane-2-carboxylic acid]	42 ± 12 % of 5b	138 ± 55	23 ± 5	3810 ± 422	NTS2/NTS1 selectivity ratio (rNTS2 receptor [2]): 188; Ki (rNTS1 receptor [3]; ± SEM): 4.33 ± 0.656 µM
(N^αMe)Arg-Lys-Pro-D-3,1-Nal-tLeu-Leu [compound 3]					selectivity for NTS2 (versus NTS1) (NTS2 versus NTS1): > 100 fold
(N^αMe)Arg-Lys-Pro-N-homo-Tyr-Ile-Leu [4b]					plasma stability [5]: excellent plasma stability; selectivity for NTS2 (versus NTS1) (NTS2 versus NTS1): 22,000 fold
Arg-Arg-Pro-N-homo-Tyr-Ile-Leu [4a]					selectivity for NTS2 (versus NTS1) (NTS2 versus NTS1): 12,000 fold
